pIC50: −log10 of the molar value.
Legend:
MV4-11 cells = assay: MV4-11 6-day cell growth CTG (CellTiter-Glo) assay; type: cell-based; settings: Homo sapiens, MV4-11, 144 h, 6 days, read-out: (c) MLL/WDR5 cell proliferation assay//MLL/WDR5 proliferation MV4:11 Qualified AC50
Experimental: MV4-11 6-Day Cell Growth CTG (CellTiter-Glo) Assay
Acute myeloid leukemia cell MV4-11 (ATCC® CRL-9591™) was cultured with RPMI 1640 medium (Thermo Fisher Scientific, cat #11875) supplemented with 10% FBS (Thermo Fisher Scientific, cat #10099141) in humidified incubator at 37° C., 5% CO2. To assess the effect of WDR5 inhibitor on cell growth, the compound of the present invention was dissolved in DMSO and serially diluted at 1:3 for 12 points starting from 10 mM then 200 nL for the replicate of each dose per well was dispensed to Viewplate-384 Black (Perkin Elmer). Exponentially growing MV4-11 cells were seeded at the density of 300 cells per well in 40 μL to the plate, so the final compound working concentration starts from 50 μM. After 6 days, 40 μL CellTiter-Glo (Promega, cat #G7573) was added into the cell culture well and luminescence was read with Envision (Perkin Elmer) to determine the viable cells. The percentage inhibition was calculated against the samples treated with DMSO only and the data were used for dose response curve fitting in GraphPad Prism to get the IC50 of representative compound of present invention, which reflects the inhibition of WDR5 activity in the proliferation of MV4;11.

[1] = biological target: wild type MLL1 four-member complex (MLL1-4C) (Homo sapiens, UniProt P61964); assay: MLL1 LC-MS assay (SAH production); type: biochemical; settings: read-out: (b) MLL LCMS Peptide Val.v.1 Qualified AC50
Experimental: The compounds of the present disclosure were serially and separately diluted 3-fold in DMSO to obtain a total of eight or twelve concentrations. Then the test compounds at each concentration (120 nL of each) were transferred by Mosquito into white Proxiplate plus 384-well microplate (PerkinElmer). Solutions (6 μL) of 60 nM wild type MLL1 four-member complex (MLL1-4C) and 5 μM SAM in the reaction buffer (20 mM Tris-HCl, pH8.0, 0.01% Tween 20, 1 mM DTT, 10 mM MgCl2, 0.01% BSA) were added to the wells that were then incubated with the test compound for 20 min. A 6 μL solution of 20 μM of the peptide substrate H3K4me0 (histone H3[1-21]-Biotin) in the reaction buffer was added to initiate each reaction. The final components in the reaction solution include 30 nM MLL1-4C, 2.5 μM SAM, and 10 μM H3K4me0 with varying concentration of the compounds. A positive control consisted of 30 nM MLL1-4C, 2.5 μM SAM, and 10 μM substrate in the absence of the test compound, and a negative control consisted of 2.5 μM SAM, and 10 μM substrate only. Each reaction was incubated at rt for 120 min, then stopped by addition of 3 μL per of quench solution (2.5% TFA with 320 nM d4-SAH). The reaction mixture was centrifuged (Eppendorf centrifuge 5810, Rotor A-4-62) for 2 min at 2000 rmp. The SAH production from the enzymatic assays were monitored by LC-MS/MS on an API 4000 triple quadrupole mass spec with Turbolon Spray (Applied Biosystem) coupled with Prominenece UFLC (Shimazu). The level of SAH production were then normalized based on the values coming from the positive and negative controls to give percent enzyme activities. The data were then fit to a dose response equation using the program Helios (Novartis) to get the IC50 values of the test compound. Helios is a Novartis in-house assay data analysis software using the methods described by Normolle, D. P., Statistics in Medicine, 12:2025-2042 (1993); Formenko, I. et al., Computer Methods and programs in Biomedicine, 82, 31-37 (2006); Sebaugh, J. L., Pharmaceutical Statistics, 10:128-134 (2011); Kelly, C. et al., Biometrics, 46(4):1071-1085 (1990); and Kahm, M, et al., Journal of Statistical Software, 33(7):(2010) (grofit: Fitting Biological Growth Curves with R, pages 1-21, available at http://www.jstatsoft.org/).

WDR5 = WDR5 (Homo sapiens, UniProt P61964); assay: WDR5 HTRF binding assay; settings: read-out: (a) WDR5 HTRF Pep Val v.1[Inhibitor/IC50]Qualified AC50
Experimental: The compounds were serially diluted 3-fold in DMSO to obtain a total of twelve concentrations. Then the test compounds at each concentration (90 nL of each) were transferred by Mosquito in the white Proxiplate plus 384-well microplate (Perkin Elmer). The assay mixture (typical 9 μL) containing 6 nM WDR5 and 20 nM Biotin-MLL1 WIN peptide (3762-3773) in the assay buffer (25 mM Hepes, pH7.5, 0.05% Tween 20, 2 mM DTT, 100 mM NaCl, 0.1% BSA) were added to the wells. For counter assay, a 9 μL solution of 15 nM Biotin-PEG-His peptide was added into the wells. After 20 min incubation at rt, a 3 μL detection solution containing 14 μg/ml Phycolink Streptavidin Allophycocyanin (Prozyme), 2 nM Anti-His-Eu (PerkinElmer) in assay buffer was then added. After 1 hr incubation, the plate was read in the EnVision reader (PerkinElmer) using the HTRF protocol (The protocol set-up: Lance/Delfia dual enhancer mirror, excitation at 320 UV2 (TRF), emission at APC665, 2nd emission at EuropiμM 615). HTRF signals were normalized based on the reading coming from the positive (maximum signal control) and negative controls (minimum signal control) to give percentage of activities left. The data were then fit to a dose response equation using the program Helios (Novartis) to get the IC50 values. Helios is a Novartis in-house assay data analysis software using the methods described by Normolle, D. P., Statistics in Medicine, 12:2025-2042 (1993); Formenko, I. et al., Computer Methods and programs in Biomedicine, 82, 31-37 (2006); Sebaugh, J. L., Pharmaceutical Statistics, 10:128-134 (2011); Kelly, C. et al., Biometrics, 46(4):1071-1085 (1990); and Kahm, M, et al., Journal of Statistical Software, 33(7):(2010) (grofit: Fitting Biological Growth Curves with R, pages 1-21, available at http://www.jstatsoft.org/).

Structure (SMILES)	AC50 [1] [nM]	pIC50 (WDR5)	AC50 (MV4-11 cells) [nM]
CNc1nccn1Cc1cc2c(c(C3CC3)c1)CCN([C@@H](C)c1cnc(F)c(OC)c1)C2=O (single isomer, unassigned) [Example 78]	10 to 1000	> 8.00	10 to 1000
CNc1nccn1Cc1cc(CN2CCC23COC3)c2c(c1)C(=O)N([C@@H](C)c1cc(OC)c(F)cn1)CC2 [Example 17, (S)-5((6-oxa-1-azaspiro+3.3+heptan-1-yl)methyl)-2-(1-(5-fluoro-4-methoxypyridin-2-yl)ethyl)-7-((2-(methylamino)-1H-imidazol-1-yl)methyl)-3,4-dihydroisoquinolin-1(2H)-one]	10 to 1000	6.00 to 8.00	10 to 1000
CCOc1cc(C(C)N2CCc3c(cc(CCN(C)CC)cc3C(C)(O)C(F)(F)F)C2=O)ncc1C#N (stereo not drawn) [Example 304, 4-ethoxy-6-(1-(7-(2-(ethyl(methyl)amino)ethyl)-1-oxo-5-(1,1,1-trifluoro-2-hydroxypropan-2-yl)-3,4-dihydroisoquinolin-2(1H)-yl)ethyl)nicotinonitrile]	10 to 1000	6.00 to 8.00	1000 to 25000
CCOc1cc([C@H](C)N2CCc3c(cc(CCN(C)CC)cc3-c3cn(C)nc3C)C2=O)ncc1Cl [Example 121, (S)-2-(1-(5-chloro-4-ethoxypyridin-2-yl)ethyl)-5-(1,3-dimethyl-1H-pyrazol-4-yl)-7-(2-(ethyl(methyl)amino)ethyl)-3,4-dihydroisoquinolin-1(2H)-one]	10 to 1000	> 8.00	10 to 1000
CCOc1cc([C@H](C)N2CCc3c(cc(CCN4C[C@@H](O)[C@H]4C)cc3-c3cn(C)nc3C(F)F)C2=O)ncc1C#N [Example 213, 6-((S)-1-(5-(3-(difluoromethyl)-1-methyl-1H-pyrazol-4-yl)-7-(2-((2R,3R)-3-hydroxy-2-methylazetidin-1-yl)ethyl)-1-oxo-3,4-dihydroisoquinolin-2(1H)-yl)ethyl)-4-ethoxynicotinonitrile]	10 to 1000	> 8.00	10 to 1000
CCOc1cc([C@H](C)N2CCc3c(cc(CCN(C)CCF)cc3-c3cn(C)c(=O)cc3Cl)C2=O)ncc1C#N [Example 251]	10 to 1000	6.00 to 8.00	10 to 1000
CCOc1cc(CN2CCc3c(cc(Cn4ccnc4C)cc3-n3nc(C)nc3C(F)F)C2=O)ncc1C#N [Example 298]	10 to 1000	> 8.00	10 to 1000
CCOc1cc([C@H](C)N2CCc3c(cc(Cn4ccnc4C)cc3-c3cc(C)nn3C)C2=O)ncc1C#N [Example 280]	10 to 1000	> 8.00	< 10
CCOc1cc([C@H](C)N2CCc3c(CN(C)C)cc(Cn4ccnc4NC)cc3C2=O)ncc1F (single isomer, unassigned) [Example 19]	10 to 1000	6.00 to 8.00	10 to 1000
CCOc1cc([C@H](C)N2CCc3c(cc(Cn4ccnc4C)cc3-c3cn(CCO)nc3C)C2=O)ncc1C#N [Example 271]	10 to 1000	> 8.00	10 to 1000
CCOc1cc([C@H](C)N2CCc3c(cc(CCN(C)C4CC4)cc3-c3ccc(F)nc3C)C2=O)ncc1C#N [Example 229]	10 to 1000	> 8.00	10 to 1000
CCOc1cc(C(C)N2CCc3c(cc(CCN(C)CCOC)cc3-c3cn(C)c(=O)cc3Cl)C2=O)ncc1C#N (stereo not drawn) [Example 233]	10 to 1000	> 8.00	10 to 1000

The next lines start with results.

AC50 [1] [nM]	pIC50 (WDR5)	Structure (SMILES)	AC50 (MV4-11 cells) [nM]
10 to 1000	> 8.00	CCOc1cc(CN2CCc3c(cc(CCN(C)CC)cc3-c3cc(C)nnc3C)C2=O)ncc1C [Example 212, 5-(3,6-dimethylpyridazin-4-yl)-2-((4-ethoxy-5-methylpyridin-2-yl)methyl)-7-(2-(ethyl(methyl)amino)ethyl)-3,4-dihydroisoquinolin-1(2H)-one]	10 to 1000
10 to 1000	6.00 to 8.00	CCOc1cc(CN2CCc3c(cc(CCN(C)CC)cc3-c3cc(C)ncc3F)C2=O)ncc1C#N [Example 154, 4-ethoxy-6-((7-(2-(ethyl(methyl)amino)ethyl)-5-(5-fluoro-2-methylpyridin-4-yl)-1-oxo-3,4-dihydroisoquinolin-2(1H)-yl)methyl)nicotinonitrile]	10 to 1000
10 to 1000	> 8.00	CCOc1cc([C@H](C)N2CCc3c(cc(CCN(C)CCOC)cc3-c3ccc(F)nc3C)C2=O)ncc1C#N [Example 234]	10 to 1000
10 to 1000	> 8.00	CCOc1cc([C@H](C)N2CCc3c(cc(CCN(C)CC)cc3-c3cc(C(F)F)cnc3C)C2=O)ncc1C#N [Example 177, (S)-6-(1-(5-(5-(difluoromethyl)-2-methylpyridin-3-yl)-7-(2-(ethyl(methyl)amino)ethyl)-1-oxo-3,4-dihydroisoquinolin-2(1H)-yl)ethyl)-4-ethoxynicotinonitrile]	10 to 1000
10 to 1000	> 8.00	CCOc1cc([C@H](C)N2CCc3c(cc(CCN(C)CC)cc3-c3ccn(C)c(=O)c3Cl)C2=O)ncc1C#N [Example 194, (S)-6-(1-(5-(3-chloro-1-methyl-2-oxo-1,2-dihydropyridin-4-yl)-7-(2-(ethyl(methyl)amino)ethyl)-1-oxo-3,4-dihydroisoquinolin-2(1H)-yl)ethyl)-4-ethoxynicotinonitrile]	10 to 1000
10 to 1000	6.00 to 8.00	CCOc1cc(C(C)N2CCc3c(cc(CCN(C)CC)cc3-c3ccc(Cl)nc3C)C2=O)ncc1C#N (stereo not drawn) [Example 147, 6-(1-(5-(6-chloro-2-methylpyridin-3-yl)-7-(2-(ethyl(methyl)amino)ethyl)-1-oxo-3,4-dihydroisoquinolin-2(1H)-yl)ethyl)-4-ethoxynicotinonitrile]	10 to 1000

Source: patent US20220289732A1, “HETEROCYCLIC WDR5 INHIBITORS AS ANTI-CANCER COMPOUNDS” (NOVARTIS AG, priority 2019, published 2022)
